How the values were obtained:
[1] = Acute oral toxicity (LD50); format: in vivo; conditions: mouse, in vivo, mice, read-out: Lethal dose LD50
Protocol: The LD 50 was calculated by the method of Litchfield and Wilcoxon (J. Pharmacol. Exp. Ther., 96, 99, 1949) and is expressed in mg/kg. The products were orally administered to mice.
Behaviour was studied, 2, 4, 6 and 24 hours after treatment. Observation was continued if symptoms persisted at that time. Deaths were recorded during the 14 days after treatment. The results are given in Table II, in which the numbers of the compounds are the same as the numbers given in column 1 of Table I.

mice = test: Teratogenic effect on mice; format: in vivo; conditions: oral doses of 100 mg/kg and 1 000 mg/kg
[2] = test system: sorbitol accumulation in crystalline lenses; test: Effect of in vivo doses on sorbitol accumulation in crystalline lenses of diabetic rats; design: species or system Sprague Dawley rats
Source text: (§1) 2.2 Effect of "in vivo" doses on sorbitol accumulation in sciatic nerves and crystalline lenses of diabetic rats:
(§2) Estimates were made of the effects of the products on the proportion of plasma glucose and the sorbitol content of the crystalline lenses and sciatic nerves of rats.

[3] = test system: sorbitol accumulation in sciatic nerves; test: Effect of in vivo doses on sorbitol accumulation in sciatic nerves of diabetic rats; design: species or system Sprague Dawley rats
Source text: as §1, §2

[4] = Effect of in vivo doses on plasma glucose of diabetic rats; design: species or system Sprague Dawley rats; conditions: n = 5, average ± standard deviation
Protocol: Compound No. 1 (CP 3182 AR) and No. 2 (CP 3192 AR) were evaluated at various doses, using the experimental model described hereinbefore (.sctn.2.1).
In the case of each product, 25 Sprague Dawley rats fasted the previous day were made diabetic by an intraperitoneal injection of streptozotocin (75 mg/kg). The rats were divided into 5 groups of 5, each orally given 0.3, […] or 10 mg/kg of CP 3182 AR or a control.
An identical experiment was performed with CP 3192 AR at the same doses. Treatment was given immediately after the streptozotocin, and 7 and 24 hours later. The animals were sacrificed 27 hours after induction. Estimates were made of the effects of the products on the proportion of plasma glucose and the sorbitol content of the crystalline lenses and sciatic nerves of rats.

[5] = test system: accumulation of sorbitol in the sciatic nerves; test: Preventive effect of single dose: sorbitol in sciatic nerves; format: in vivo, Sprague Dawley rats; conditions: 10 mg/kg oral
Protocol: 2.3. In vivo effects of a single dose of compound No. 2 (CP 3192 AR) on the variation in the proportion of plasma glucose and the accumulation of sorbitol in the crystalline lenses and sciatic nerves of diabetic rats.
2.3.1. Preventive effect. CP 3192 AR was administered simultaneously with the induction of diabetes. The experiment was performed on 33 male Sprague Dawley rats weighing about 200 g.
At time 0 hours, 3 rats were sacrificed and used as non-diabetic controls. 30 fats fasted the previous day were made diabetic by an intraperitoneal injection of streptozotocin (75 mg/kg). A dose of 10 mg/kg of CP 3192 AR was simultaneously administered orally to 15 of the rats. The other 15 were given a placebo. 3 control rats and 3 rats treated with CP 3192 AR were sacrificed 2, 4, 8, 24 and 48 hours after induction of diabetes.
An estimate was made of the effects of the product on the proportion of plasma glucose and the sorbitol content of the crystalline lenses and sciatic nerves.

[6] = test system: accumulation of sorbitol in the sciatic nerves; test: Curative effect of single dose: sorbitol in sciatic nerves; format: in vivo, Sprague Dawley rats; conditions: for Accumulation of sorbitol in sciatic nerves, treated: 10 mg/kg oral
Protocol: (§3) 2.3.2. Curative effect: CP 3192 AR was administered 24 hours after induction of diabetes.
(§4) As before, the experiment was made on 33 male Sprague Dawley rats weighing about 200 g. The 33 rats, which had been fasted the previous day, were made diabetic by an intraperitoneal injection of streptozotocin (75 mg/kg).
(§5) 24 hours after induction of diabetes, 3 rats were sacrificed and used as diabetic controls. A dose of 10 mg/kg of CP 3192 AR was orally administered to 15 rats whereas the other 15 were given the excipient without an active product. 3 control rats and 3 rats treated with CP 3192 AR were sacrificed 2, 4, 8, 24 and 48 hours after administration of the product.
(§6) Estimates were made of the effects of the product on the proportion of plasma glucose and the sorbitol content of the crystalline lenses and sciatic nerves of rats made diabetic by streptozotocin.

[7] = Curative effect of single dose: plasma glucose; format: in vivo, Sprague Dawley rats; conditions: for Plasma glucose, treated: 10 mg/kg oral 24 h after diabetes induction
Protocol: as §3, §4, §5, §6

CC(=O)OCN1C(=O)N(COC(C)=O)C2(C1=O)c1ccccc1-c1ccccc12 [Compound 2, bis-(1',3'-acetoxymethyl)-spiro-/fluorene-9,4'-imidazolidine/-2',5'-dione]
LD50 at 336 h [1]: > 3000 mg/kg | mutagenic effect (Ames test): does not have a mutagenic effect | teratogenic effect (mice): does not have a mutagenic effect in the Ames test or teratogenic effect on mice | % inhibition of sorbitol accumulation, Crystalline lenses ([2]; 0.3 mg/kg oral at 0, 7, 24 h): 3 ± 25% | % inhibition of sorbitol accumulation, Crystalline lenses ([2]; 1 mg/kg oral at 0, 7, 24 h): 13% | % inhibition of sorbitol accumulation, Crystalline lenses ([2]; 3 mg/kg oral at 0, 7, 24 h): 46% | % inhibition of sorbitol accumulation, Crystalline lenses ([2]; 10 mg/kg oral at 0, 7, 24 h): 66% | ED50 ([2]; Rattus norvegicus, 27 h, crystalline lenses, diabetic rats, oral, read-out: ED50 (dose at which measured inhibition of aldose reductase activity is 50%)): 3 mg/kg | therapeutic index MED/ED50, crystalline lenses ([2]; crystalline lenses): about 1 000 | % inhibition of sorbitol accumulation, Sciatic nerves ([3]; 0.3 mg/kg oral at 0, 7, 24 h): 42 ± 9% | % inhibition of sorbitol accumulation, Sciatic nerves ([3]; 1 mg/kg oral at 0, 7, 24 h): 40 ± 17% | % inhibition of sorbitol accumulation, Sciatic nerves ([3]; 3 mg/kg oral at 0, 7, 24 h): 68 ± 11% | % inhibition of sorbitol accumulation, Sciatic nerves ([3]; 10 mg/kg oral at 0, 7, 24 h): 79 ± 9% | ED50 ([3]; Rattus norvegicus, 27 h, sciatic nerves, diabetic rats, oral, read-out: ED50 (dose at which measured inhibition of aldose reductase activity is 50%)): 1 mg/kg | therapeutic index MED/ED50, sciatic nerves ([3]; sciatic nerves): above 3 000 | Plasma glucose ([4]; 0.3 mg/kg oral): 425 ± 82 mg/100 ml | Plasma glucose ([4]; 1 mg/kg oral): 444 ± 76 mg/100 ml | Plasma glucose ([4]; 3 mg/kg oral): 446 ± 70 mg/100 ml | Plasma glucose ([4]; 10 mg/kg oral): 472 ± 55 mg/100 ml | Accumulation of sorbitol in sciatic nerves, treated ([5]; 2 h, p < 0.05): 1.23 ± 0.2 µg | Accumulation of sorbitol in sciatic nerves, treated ([5]; 4 h, p < 0.005): 1.8 ± 0.2 µg | Accumulation of sorbitol in sciatic nerves, treated ([5]; 8 h, p < 0.0005): 1.8 ± 0.5 µg | Accumulation of sorbitol in sciatic nerves, treated ([5]; 24 h, p < 0.05): 4.0 ± 1.0 µg | Accumulation of sorbitol in sciatic nerves, treated ([5]; 48 h, p < 0.05): 4.6 ± 1.7 µg | Accumulation of sorbitol in sciatic nerves, treated ([6]; 2 h after administration): 4.8 ± 2.0 µg | Accumulation of sorbitol in sciatic nerves, treated ([6]; 4 h after administration, n = 1): 4.0 µg | Accumulation of sorbitol in sciatic nerves, treated ([6]; 8 h after administration, n = 1): 2.2 µg | Accumulation of sorbitol in sciatic nerves, treated ([6]; 24 h after administration): 2.5 ± 0.4 µg | Accumulation of sorbitol in sciatic nerves, treated ([6]; 48 h after administration): 5.9 ± 1.8 µg | proportion of sorbitol in sciatic nerves (in words) ([6]; single dose 10 mg/kg): greatly reduces | Plasma glucose, treated ([7]; 2 h): 406 ± 28 mg/100 ml | Plasma glucose, treated ([7]; 4 h): 459 ± 73 mg/100 ml | Plasma glucose, treated ([7]; 8 h): 575 ± 14 mg/100 ml | Plasma glucose, treated ([7]; 24 h): 478 ± 83 mg/100 ml | Plasma glucose, treated ([7]; 48 h): 456 ± 117 mg/100 ml | effect on the proportion of plasma glucose ([7]; single dose 10 mg/kg): no effect
